Measurements from patent US7553815B1, “Therapeutic use” (priority 1999, dated 2009).
Marks after values point to notes of the source that are not given here.

Test system: normal breast epithelium
Test: Normal breast xenografts: proliferation (Ki67 LI) and apoptosis (AI) (Example 2)
Format: in vivo, human

## COc1cc2ncnc(Nc3ccc(F)c(Cl)c3)c2cc1OCCCN1CCOCC1 [ZD1839, N-(3-chloro-4-fluorophenyl)-7-methoxy-6-(3-morpholinopropoxy)quinazolin-4-amine]
Day 21, ratio of cell turnover
  Median LI/AI, Normal breast: 3.9***
Normal breast, Day 28, 10-200 mg/kg
  Dose response of epithelial proliferation (Ki67 LI), FIG. 2: not in normal breast
